pKi: −log10 of the molar value.
What was measured:
[1] = Compound was evaluated for inhibition of metallo beta lactamase from Aeromonas hydrophilia AE036.; set-up: species or system Aeromonas hydrophila
Aeromonas hydrophila = assay: Compound was evaluated for kinetic data for the inhibition of metallo beta lactamase from Aeromonas hydrophilia AE036.
[2] = Compound was evaluated for inhibition of metallo beta lactamase from bacillus cereus 569H
[3] = Compound was evaluated for inhibition of metallo beta lactamase from Pseudomonas aeruginosa 101
[4] = Compound was evaluated for inhibition of metallo beta lactamase from xanthomonas maltophilia ULA-511; set-up: species or system Stenotrophomonas maltophilia
[5] = Ratio of K+2/K of the compound

Structure (SMILES)	pKi [1]	k+2 (Aeromonas hydrophila) [s⁻¹]	pKi [2]	pKi [3]	pKi [4]	k+2/k [5] [M⁻¹ s⁻¹]
C[C@@H](NC(=O)COc1ccccc1)C(=O)C(F)(F)F	4.96	1	3.15	3.30	5.52	9.1
C[C@H](NC(=O)COc1ccccc1)C(=O)C(F)(F)F	4.36	4	3.52	3.52	5.82	9.1
C[C@@H](NC(=O)COc1ccccc1)[C@@H](O)C(F)(F)F	3.66	1.1	3.15	3.40	4.46	5.25
C[C@H](NC(=O)COc1ccccc1)[C@@H](O)C(F)(F)F			2.52	3.40	< 2.30	
O=C(COc1ccccc1)N[C@@H](Cc1ccccc1)C(=O)C(F)(F)F	5.22	4.3	3.30	3.28	4.82	7.2
O=C(COc1ccccc1)N[C@H](Cc1ccccc1)C(=O)C(F)(F)F			3.00			
O=C(COc1ccccc1)N[C@H](Cc1ccccc1)[C@@H](O)C(F)(F)F	4.70	3.9	4.52	4.22	< 2.30	1.9
O=C(COc1ccccc1)N[C@@H](Cc1ccccc1)[C@@H](O)C(F)(F)F	4.72	4.3	3.00	3.05	< 2.30	2.3

Reference: ChEMBL document CHEMBL1129199, “Trifluoromethyl alcohol and ketone inhibitors of metallo--lactamases” (Bioorg Med Chem Lett, 1996)
